This test has as its target T1, rat NaP2b (SLC34A2) (Rattus norvegicus, UniProt Q9JJ09).
T1 construct: host or cells: HEK293
T1 sequence (Q9JJ09 1-695): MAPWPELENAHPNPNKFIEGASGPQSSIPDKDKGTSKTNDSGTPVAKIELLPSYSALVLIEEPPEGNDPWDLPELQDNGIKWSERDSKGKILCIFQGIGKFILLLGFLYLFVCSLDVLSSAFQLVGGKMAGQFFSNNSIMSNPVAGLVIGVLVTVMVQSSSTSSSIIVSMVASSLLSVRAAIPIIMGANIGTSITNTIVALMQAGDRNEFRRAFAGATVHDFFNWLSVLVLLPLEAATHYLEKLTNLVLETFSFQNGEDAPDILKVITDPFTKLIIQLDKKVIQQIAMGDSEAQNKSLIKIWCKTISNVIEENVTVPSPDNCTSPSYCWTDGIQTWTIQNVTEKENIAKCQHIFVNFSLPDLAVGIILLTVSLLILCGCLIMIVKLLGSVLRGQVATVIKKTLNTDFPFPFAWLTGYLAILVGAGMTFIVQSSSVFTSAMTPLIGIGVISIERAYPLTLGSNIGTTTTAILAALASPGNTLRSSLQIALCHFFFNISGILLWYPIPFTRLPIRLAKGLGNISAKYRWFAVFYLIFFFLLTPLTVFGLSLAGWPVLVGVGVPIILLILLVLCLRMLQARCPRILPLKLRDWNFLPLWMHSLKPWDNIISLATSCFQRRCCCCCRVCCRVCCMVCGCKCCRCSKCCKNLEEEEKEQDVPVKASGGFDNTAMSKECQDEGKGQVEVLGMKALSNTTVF
Briefly: Inhibition of NaP2b-mediated Pi (33P) uptake in transfected HEK293 cells, rat NaP2b. It is filed as cell-based. To be noted: 33P Pi uptake, 0.1 mM phosphate, value given as pIC50 range. In a few lines: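 The cells transiently expressed NaP2b after Lipofectamine transfection. Each compound was run in duplicate over twelve concentrations, 0.1 nM–30 uM.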
Broadly, the IC50 is the concentration at which inhibition is half-maximal. A low value points to inhibition by little substance. Consider `O=C(NCc1cccc(C(F)(F)F)c1)c1ccnc(-c2cc(N3CCCCC3)ccc2NC(=O)c2cccc(CSCCS(=O)(=O)O)c2)c1` [Example 8.13], for which the IC50 was 10 to 31.6 µM.
Turning to `O=C(NCc1cccc(C(F)(F)F)c1)c1ccnc(-c2cc(N3CCCCC3)ccc2NC(=O)c2cccc(CSc3ncc(C(=O)O)c(O)n3)c2)c1` [Example 8.14], the IC50 was 1 to 7.94 µM.
In the case of `O=C(O)c1ccc(SCc2cccc(C(=O)Nc3ccc(N4CCCCC4)cc3-c3cc(C(=O)NCc4cccc(C(F)(F)F)c4)ccn3)c2)nc1` [Example 8.15] it was 1 to 7.94 µM; in that of `Cc1nc(SCc2cccc(C(=O)Nc3ccc(N4CCCCC4)cc3-c3cc(C(=O)NCc4cccc(C(F)(F)F)c4)ccn3)c2)sc1CC(=O)O` [Example 8.16], 1 to 7.94 µM.
The same measure for `O=C(O)Cc1ccc(SCc2cccc(C(=O)Nc3ccc(N4CCCCC4)cc3-c3cc(C(=O)NCc4cccc(C(F)(F)F)c4)ccn3)c2)cc1` [Example 8.17]: under 1 µM.
The same measure for `O=C(O)CCCc1cccc(SCc2cccc(C(=O)Nc3ccc(N4CCCCC4)cc3-c3cc(C(=O)NCc4cccc(C(F)(F)F)c4)ccn3)c2)c1` [Example 8.19]: 1 to 7.94 µM; for `CC(C)(Cc1cccc(SCc2cccc(C(=O)Nc3ccc(N4CCCCC4)cc3-c3cc(C(=O)NCc4cccc(C(F)(F)F)c4)ccn3)c2)c1)C(=O)O` [Example 8.20]: 1 to 7.94 µM.
Take `O=C(O)CCOCCOCCOCCOCCOCCOCCOCCOCCSCc1cccc(C(=O)Nc2ccc(N3CCCCC3)cc2-c2cc(C(=O)NCc3cccc(C(F)(F)F)c3)ccn2)c1` [Example 8.22]: the IC50 was 1 to 7.94 µM.
The same measure for `O=C(O)c1ccc(SCc2cccc(C(=O)Nc3ccc(N4CCCCC4)cc3-c3cc(C(=O)NCc4cccc(C(F)(F)F)c4)ccn3)c2)cc1` [Example 8.23]: 1 to 7.94 µM.
Regarding `O=C(NCc1cccc(C(F)(F)F)c1)c1ccnc(-c2cc(N3CCCCC3)ccc2NC(=O)c2cccc(CN3CCC(CO)CC3)c2)c1` [Example 8.27], the half-inhibitory concentration (IC50) is 10 to 31.6 µM.
The same measure for `O=C(NCc1cccc(C(F)(F)F)c1)c1ccnc(-c2cc(N3CCCCC3)ccc2NC(=O)c2cccc(Cn3ccc4c(C(=O)O)cccc43)c2)c1` [Example 9.1, 1-(3-((4-(Piperidin-1-yl)-2-(4-((3-(trifluoromethyl)benzyl)carbamoyl)pyridin-2-yl)phenyl)carbamoyl)benzyl)-1H-indole-4-carboxylic acid]: 1 to 7.94 µM; for `O=C(O)c1cccc(CSCc2cccc(C(=O)Nc3ccc(N4CCCCC4)cc3-c3cc(C(=O)NCc4cccc(C(F)(F)F)c4)ccn3)c2)c1` [Example 9.3, 3-(((3-((4-(Piperidin-1-yl)-2-(4-((3-(trifluoromethyl)benzyl)carbamoyl)pyridin-2-yl)phenyl)carbamoyl)benzyl)thio)methyl)benzoic acid]: 1 to 7.94 µM; for `CN1CCC(N(C)C(=O)c2cccc(SCc3cccc(C(=O)Nc4ccc(N5CCCCC5)cc4-c4cc(C(=O)NCc5cccc(C(F)(F)F)c5)ccn4)c3)c2)CC1` [Example 10.2]: 10 to 31.6 µM.
`CN1CCN(C(=O)c2cccc(SCc3cccc(C(=O)Nc4ccc(N5CCCCC5)cc4-c4cc(C(=O)NCc5cccc(C(F)(F)F)c5)ccn4)c3)c2)CC1` [Example 10.3] gave an IC50 of 10 to 31.6 µM.
`CN1CCC(NC(=O)c2cccc(SCc3cccc(C(=O)Nc4ccc(N5CCCCC5)cc4-c4cc(C(=O)NCc5cccc(C(F)(F)F)c5)ccn4)c3)c2)CC1` [Example 10.4] had a concentration for half-maximal inhibition (IC50) of 10 to 31.6 µM.
The same measure for `COCCNC(=O)c1cccc(SCc2cccc(C(=O)Nc3ccc(N4CCCCC4)cc3-c3cc(C(=O)NCc4cccc(C(F)(F)F)c4)ccn3)c2)c1` [Example 10.5]: 10 to 31.6 µM; for `O=C(NCCN1CCOCC1)c1cccc(SCc2cccc(C(=O)Nc3ccc(N4CCCCC4)cc3-c3cc(C(=O)NCc4cccc(C(F)(F)F)c4)ccn3)c2)c1` [Example 10.6]: 1 to 7.94 µM; for `CN(CCN1CCOCC1)C(=O)c1cccc(SCc2cccc(C(=O)Nc3ccc(N4CCCCC4)cc3-c3cc(C(=O)NCc4cccc(C(F)(F)F)c4)ccn3)c2)c1` [Example 10.7]: 1 to 7.94 µM.
The compound `CCN(CC)CCN(C)C(=O)c1cccc(SCc2cccc(C(=O)Nc3ccc(N4CCCCC4)cc3-c3cc(C(=O)NCc4cccc(C(F)(F)F)c4)ccn3)c2)c1` [Example 10.8] had an IC50 of 10 to 31.6 µM.
The same measure for `CN(CCN1CCOCC1)C(=O)c1cccc(C(=O)Nc2ccc(N3CCCCC3)cc2-c2cc(C(=O)NCc3cccc(C(F)(F)F)c3)ccn2)n1` [Example 11.1, N2-Methyl-N2-(2-morpholinoethyl)-N6-(4-(piperidin-1-yl)-2-(4-((3-(trifluoromethyl)benzyl)carbamoyl)pyridin-2-yl)phenyl)pyridine-2,6-dicarboxamide]: 1 to 7.94 µM.
With `Cc1cc(C(=O)Nc2ccc(N3CCCCC3)cc2-c2cc(C(=O)NCc3cccc(C(F)(F)F)c3)ccn2)cc(C(=O)N(C)CCN2CCOCC2)c1` [Example 11.2, N1,5-Dimethyl-N1-(2-morpholinoethyl)-N3-(4-(piperidin-1-yl)-2-(4-((3-(trifluoromethyl)benzyl)carbamoyl)pyridin-2-yl)phenyl)isophthalamide], the IC50 was 1 to 7.94 µM.
In the case of `COc1c(C(=O)Nc2ccc(N3CCCCC3)cc2-c2cc(C(=O)NCc3cccc(C(F)(F)F)c3)ccn2)cccc1C(=O)N(C)CCN1CCOCC1` [Example 11.3, 2-Methoxy-N1-methyl-N1-(2-morpholinoethyl)-N3-(4-(piperidin-1-yl)-2-(4-((3-(trifluoromethyl)benzyl)carbamoyl)pyridin-2-yl)phenyl)isophthalamide] it was 10 to 31.6 µM; in that of `COc1cc(C(=O)Nc2ccc(N3CCCCC3)cc2-c2cc(C(=O)NCc3cccc(C(F)(F)F)c3)ccn2)cc(C(=O)N(C)CCN2CCOCC2)c1` [Example 11.4, 5-Methoxy-N1-methyl-N1-(2-morpholinoethyl)-N3-(4-(piperidin-1-yl)-2-(4-((3-(trifluoromethyl)benzyl)carbamoyl)pyridin-2-yl)phenyl)isophthalamide], 10 to 31.6 µM; in that of `CN(CCN1CCN(C(=O)OC(C)(C)C)CC1)Cc1cccc(C(=O)Nc2ccc(N3CCCCC3)cc2-c2cc(C(=O)NCc3cccc(C(F)(F)F)c3)ccn2)c1` [Example 38, Tert-butyl 4-(2-(methyl(3-((4-(piperidin-1-yl)-2-(4-((3-(trifluoromethyl)benzyl)-carbamoyl)pyridin-2-yl)phenyl)carbamoyl)benzyl)amino)ethyl)piperazine-1-carboxylate], 10 to 31.6 µM.
The same measure for `CN(Cc1cccc(C(=O)Nc2ccc(N3CCCCC3)cc2-c2cc(C(=O)NCc3cccc(C(F)(F)F)c3)ccn2)c1)C(=O)CN1CCOCC1` [Example 42, 2-(2-(3-((N-Methyl-2-morpholinoacetamido)methyl)benzamido)-5-(piperidin-1-yl)phenyl)-N-(3-(trifluoromethyl)benzyl)isonicotinamide]: 10 to 31.6 µM; for `CN(CCOCCOCCOCCC(=O)O)Cc1cccc(C(=O)Nc2ccc(N3CCCCC3)cc2-c2cc(C(=O)NCc3cccc(C(F)(F)F)c3)ccn2)c1` [Example 43, 2-Methyl-1-(3-((4-(piperidin-1-yl)-2-(4-((3-(trifluoromethyl)benzyl)carbamoyl)pyridin-2-yl)phenyl)carbamoyl)phenyl)-5,8,11-trioxa-2-azatetradecan-14-oic acid]: 10 to 31.6 µM.
`CN(CCOCCOCCOCCC(=O)O)Cc1cccc(C(=O)Nc2ccc(N3CCCCC3)cc2-c2cc(C(=O)NCc3cccc(C(F)(F)F)c3)ccn2)n1` [Example 54, 2-Methyl-1-(6-((4-(piperidin-1-yl)-2-(4-((3-(trifluoromethyl)benzyl)carbamoyl)pyridin-2-yl)phenyl)carbamoyl)pyridin-2-yl)-5,8,11-trioxa-2-azatetradecan-14-oic acid] showed an IC50 of 10 to 31.6 µM.
With `CC(=O)N[C@@H]1CCN(Cc2cccc(C(=O)Nc3ccc(N4CCCCC4)cc3-c3cc(C(=O)NCc4cccc(C(F)(F)F)c4)ccn3)n2)C1` [Example 55, (R)-6-((3-Acetamidopyrrolidin-1-yl)methyl)-N-(4-(piperidin-1-yl)-2-(4-((3-(trifluoromethyl)benzyl)carbamoyl)pyridin-2-yl)phenyl)picolinamide 2,2,2-trifluoroacetate], the IC50 is 1 to 7.94 µM.
In the case of `CC(=O)N[C@H]1CCN(Cc2cccc(C(=O)Nc3ccc(N4CCCCC4)cc3-c3cc(C(=O)NCc4cccc(C(F)(F)F)c4)ccn3)n2)C1` [Example 56, (S)-6-((3-Acetamidopyrrolidin-1-yl)methyl)-N-(4-(piperidin-1-yl)-2-(4-((3-(trifluoromethyl)benzyl)carbamoyl)pyridin-2-yl)phenyl)picolinamide] it was 10 to 31.6 µM.
The same measure for `CC(=O)NC1CCN(Cc2cccc(C(=O)Nc3ccc(N4CCCCC4)cc3-c3cc(C(=O)NCc4cccc(C(F)(F)F)c4)ccn3)n2)CC1` [Example 57, 6-((4-Acetamidopiperidin-1-yl)methyl)-N-(4-(piperidin-1-yl)-2-(4-((3-(trifluoromethyl)benzyl)carbamoyl)pyridin-2-yl)phenyl)picolinamide]: 10 to 31.6 µM.

Values taken from patent US20140023611A1 (priority 2010, published 2014).
